Test results taken from ChEMBL document CHEMBL1201862, “PubChem BioAssay data set” (2004).
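Five concentrations, 48 hours, 96-well plates. The concentration for 50% growth inhibition is given as GI50.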 Activity calls are given as the source filed them. Cut-off read from the data, not from the text of the source: active = GI50 up to about 1.1 µM and inactive = higher.

Experiments:
Experiment in all cases: growth of human tumour cells (NCI), 48 h
[1] = test system: ACHN
[2] = test system: MDA-N
[3] = test system: HT-29
[4] = test system: HL-60
[5] = test system: OVCAR-5
[6] = test system: HOP-62
[7] = test system: PC-3
[8] = test system: HCT-116
[9] = test system: HCC 2998
[10] = test system: SR
[11] = test system: MOLT-4
[12] = test system: TK-10
[13] = test system: EKVX
[14] = test system: SNB-19
[15] = test system: HOP-92
[16] = test system: SF-295
[17] = test system: RXF 393
[18] = test system: Malme-3M
[19] = test system: OVCAR-3
[20] = test system: NCI-H226

Compound | GI50 [1] | GI50 [2] | GI50 [3] | GI50 [4] | GI50 [5] | GI50 [6] | GI50 [7] | GI50 [8] | GI50 [9] | GI50 [10] | GI50 [11] | GI50 [12] | GI50 [13] | GI50 [14] | GI50 [15] | GI50 [16] | GI50 [17] | GI50 [18] | GI50 [19] | GI50 [20]
O=C1C=CC2(O[C@H](C3CCCCC3)[C@@H](C3CCCCC3)O2)C(SC(=O)c2ccccc2)C1 (stereo not given in full) | 1.94 µM (inactive) | 1.78 µM (inactive) | 1.36 µM (inactive) | 1.79 µM (inactive) | 1.88 µM (inactive) | 3.23 µM (inactive) | 2.23 µM (inactive) | 0.918 µM (active) | 1.25 µM (inactive) | 0.925 µM (active) | 1.09 µM (active) | 2.26 µM (inactive) | 6.1 µM (inactive) | 1.44 µM (inactive) | 8.39 µM (inactive) | 7.14 µM (inactive) | 1.01 µM (active) | 3.66 µM (inactive) | 0.891 µM (active) | 0.82 µM (active)
CN(C)C(=S)/N=c1\ssc(=S)n1Cc1cccnc1 | 6.76 µM (inactive) | 0.324 µM (active) | 1.66 µM (inactive) | 1.76 µM (inactive) | 35.9 µM (inactive) | 4.91 µM (inactive) | 1.67 µM (inactive) | 3.2 µM (inactive) | 2.54 µM (inactive) | 0.638 µM (active) | 6.46 µM (inactive) | 14.2 µM (inactive) | > 88.9 µM (inactive) | 5.15 µM (inactive) | 3.81 µM (inactive) | 1.81 µM (inactive) | 1.47 µM (inactive) | 2.16 µM (inactive) | 1.65 µM (inactive) | > 55.6 µM (inactive)
CC(C)(C)c1cc(OCc2nnc3sc(Cc4ccccc4)nn23)c(Cl)cc1OCc1nnc2sc(Cc3ccccc3)nn12 | 24.9 µM (inactive) | 24.5 µM (inactive) | 22.1 µM (inactive) | 23.8 µM (inactive) | 29 µM (inactive) | 46.6 µM (inactive) | 30.1 µM (inactive) | 24.3 µM (inactive) | 4.4 µM (inactive) | 3.52 µM (inactive) | 17.3 µM (inactive) | 30.1 µM (inactive) | 27.3 µM (inactive) | 33.5 µM (inactive) | 15.8 µM (inactive) | 23.3 µM (inactive) | 18.1 µM (inactive) | 19.5 µM (inactive) | 30.7 µM (inactive) | > 100 µM (inactive)
N#Cc1c(N)nc2[nH]nc(N)c2c1-c1ccc(Cl)cc1 | 2.49 µM (inactive) | 4.22 µM (inactive) | 7.62 µM (inactive) | 9.75 µM (inactive) | 11.9 µM (inactive) | 6.75 µM (inactive) | 2.65 µM (inactive) | 5.52 µM (inactive) | 10 µM (inactive) | > 22.6 µM (inactive) | 2.54 µM (inactive) | 2.1 µM (inactive) | 5.21 µM (inactive) | 29.2 µM (inactive) | 1.81 µM (inactive) | 6.03 µM (inactive) | 2.11 µM (inactive) | 2.1 µM (inactive) | 2.34 µM (inactive) | 5.41 µM (inactive)
COc1cc(N(CCC#N)CCC#N)ccc1/C=C1\SC(=S)NC1=O | > 100 µM (inactive) | > 100 µM (inactive) | > 100 µM (inactive) | > 100 µM (inactive) | > 100 µM (inactive) | > 100 µM (inactive) | > 100 µM (inactive) | > 100 µM (inactive) | > 100 µM (inactive) | > 100 µM (inactive) | > 100 µM (inactive) | > 100 µM (inactive) | > 100 µM (inactive) | > 100 µM (inactive) | > 100 µM (inactive) | > 100 µM (inactive) | > 100 µM (inactive) | > 100 µM (inactive) | > 100 µM (inactive) | > 100 µM (inactive)
Cc1c(S(=O)(=O)O)ccc(/N=N/c2c(O)c(C(=O)O)cc3ccccc23)c1Cl | > 100 µM (inactive) | > 100 µM (inactive) | > 100 µM (inactive) | > 100 µM (inactive) | > 100 µM (inactive) | > 100 µM (inactive) | > 100 µM (inactive) | > 100 µM (inactive) | > 100 µM (inactive) | > 50.2 µM (inactive) | > 100 µM (inactive) | > 100 µM (inactive) | > 100 µM (inactive) | > 100 µM (inactive) | > 100 µM (inactive) | > 100 µM (inactive) | > 100 µM (inactive) | > 63.5 µM (inactive) | > 100 µM (inactive) | > 100 µM (inactive)
COc1ccc(-c2oc3c(OC)c(OC)c(OC)c(O)c3c(=O)c2OC)cc1OC | 25 µM (inactive) | 10.3 µM (inactive) | 23.6 µM (inactive) | 6.81 µM (inactive) | 35.6 µM (inactive) | 19.5 µM (inactive) | 18 µM (inactive) | 24.9 µM (inactive) | 19.3 µM (inactive) | 7.87 µM (inactive) | 15.5 µM (inactive) | 36.2 µM (inactive) | 37.6 µM (inactive) | 63.4 µM (inactive) | 0.243 µM (active) | 22 µM (inactive) | 17.4 µM (inactive) | 46.8 µM (inactive) | 22.7 µM (inactive) | 20.7 µM (inactive)
